Measured values: publication PMC12752627, “Discovery of a Potent and Selective TEAD Degrader with Durable Degradation Activity” (Advanced Science, 2025)
Like-named read-outs stand apart in the source and are kept apart here.

What was measured:
TEAD1/3, TAZ = assay: Immunoblot in A172 cells; format: cell-based; conditions: 24 h
Description: (§1) Immunoblotting was carried out as previously described.^[ [29] ^] Cells were seeded in 6‐well plates (Yeasen, #84011ES50) at a density of 1 million cells per well. The following day, cells were treated with compounds at the required concentrations, with the DMSO concentration kept below 0.4‰ to prevent toxic effects on the cells. The collected cell pellets were washed three times with PBS (Meilunbio, #MA0015) and resuspended in 120 µL of RIPA lysis buffer (Meilunbio, #MA0151) containing 1% protease inhibitor (Meilunbio, #MB2678‐2). The cells were then sonicated on ice and centrifuged at 12 000 rpm for 15 min at 4 °C to remove cellular debris. Protein concentrations were determined using the BCA Protein Quantification Kit (Meilunbio, #MA0082‐1). The protein samples were normalized, boiled at 99 °C for 10 min, and then subjected to electrophoresis on a 10% SDS‐PAGE gel. The separated protein bands were transferred to nitrocellulose membranes, blocked with TBST containing 5% BSA, and incubated with the indicated primary antibodies. Finally, the blots were imaged using an Amersham Typhoon NIR imager.

ES2 cells = assay: Cell viability assay (CTG, 72 h) ES2; format: cell-based; conditions: Homo sapiens, ES-2, 72 h, 3-day compound treatment
Description: (§2) Cells were seeded at a density of 1000 cells per well in 96‐well flat‐bottomed cell culture plates and cultured overnight at 37 °C with 5% CO2 to allow for cell attachment. The following day, different concentrations of compounds were added using an I‐DOT dispenser. After 72 h, 25 µL of CellTiter‐Meiluncell Luminescent Cell Viability Reagent (Meilunbio, #PWL111‐2) was added and incubated for 15 min at room temperature. Luminescence signals were then measured using an Envision plate reader (Revvity). Data were analyzed using GraphPad Prism 9.5 software.^[ [30] ^]

MSTO-211H cells = assay: Cell viability assay (CTG, 72 h) MSTO-211H; format: cell-based; conditions: Homo sapiens
Description: as §2

KLE cells = assay: Cell viability assay (CTG, 72 h) KLE; format: cell-based; conditions: Homo sapiens, KLE, 72 h, 3-day compound treatment
Description: as §2

CRBN = target: T1, CRBN (Homo sapiens, UniProt Q96SW2); assay: Intracellular CRBN binding in NanoLuc-CRBN-overexpressing HEK293T cells; format: cell-based; conditions: read-out: Cellular CRBN Binding IC50 (nM ± SD)
T1 construct: expressed in transfected cells; host or cells: HEK293T
Description: NanoLuc‐CRBN‐overexpressing HEK293T were seeded in 96‐well plates at a density of 2000 per well. The following day, compounds was added to the plate starting from 10 µM for a 3‐fold gradient dilution and incubated for 2 h. […] Finally, the signal was measured using an Envision plate reader (Revvity) and the data were analyzed using the GraphPad Prism 9.5 software.

[1] = tested on: CTGF, ANKRD1, NPPB, PTX3 expression; assay: RT-qPCR in A172 cells incl. washout; format: cell-based; conditions: 6 h treatment, 18 h
Description: Cells were seeded in 6‐well plates at a density of 1 million cells per well. The following day, different concentrations of compounds were added, and cells were collected after 24 h. For wash‐out experiments, cells were pre‐treated with compounds at indicated concentrations for 6 h, then cells were washed three times with PBS, and an equal volume of complete medium without compounds was added and incubated for another 18 h.
RNA was isolated and purified from the samples using the EZ‐10 Rotary Column Total RNA Isolation Kit (Sangon Biotech, B615012). After measuring the RNA concentration, 200 ng of purified RNA was used for genomic DNA removal and reverse transcription to cDNA with the HiScript III 1st Strand cDNA Synthesis Kit (+DNA wiper) (Vazyme, R312‐02). The resulting cDNA was then prepared into a reaction mix according to the ChamQ SYBR qPCR Mix (Vazyme, #q711‐02). Real‐time PCR analysis was performed using a QuantStudio 6 Pro real‐time PCR system (Thermo Fisher Scientific). Relative gene expression was calculated using the 2‐∆∆CT method.

TEAD1 [2] = target: T2, TEAD1 (Homo sapiens, UniProt P28347+Q96SW2); assay: Immunoblot of TEAD1 degradation in TEAD1-mNeonGreen fusion NCI-H1299 cells; format: cell-based
T2 construct: endogenous in cells; host or cells: NCI-H1299 (TEAD1-mNeonGreen knock-in)
Description: as §1

MSTO-211H xenograft = MSTO-211H xenograft pharmacodynamic study (3 mg/kg i.p.); format: in vivo, BALB/c nude mice; conditions: 3 mg/kg i.p. q.d. 21 days
Description: Animal experiments were conducted by Medsyin (Shanghai) Co., Ltd. The experimental protocol was approved by the IACUC of the company (No.: PZWH20240527‐1) and strictly adhered to the guidelines of AAALAC. The specific procedures are as follows: 5 × 10^6 MSTO‐211H cells were suspended in 100 µL of a mixture of PBS and Matrigel and inoculated subcutaneously into the right axilla of 6‐week‐old BALB/c nude mice. Drug administration was initiated on day 7 after cell inoculation (when the average tumor volume was ≈150 mm^3). The experiment was divided into two groups: one group served as the control group, and the other group received drug administration via intraperitoneal injection at a dose of 3 mg kg^−1 (6 mice in each group), once a day for 21 consecutive days. During the experiment, the body weight and tumor volume of the mice were measured twice a week. At the end of the experiment, the mice were sacrificed and tumor tissues were collected.

CRBN-DDB1 = CRBN-DDB1 (Homo sapiens, UniProt Q96SW2); assay: CRBN binding assay, biochemical (HTRF); conditions: recombinant CRBN-DDB1, 1 h, read-out: Biochemical CRBN Binary Binding IC50 (nM ± SD)
Description: Next, 400 nL of compound solution (initial concentration 10 µM, followed by a three‐fold gradient dilution) was dispensed into the wells using the positive‐pressure‐based I‐DOT dispenser. After 1 h of incubation at room temperature, the HTRF signal was measured using an Envision plate reader (Revvity). Finally, the data were analyzed using non‐linear regression curves in GraphPad Prism 9.5 software.

TEAD1 [3] = target: TEAD1 (Homo sapiens, UniProt P28347); assay: Immunoblot of TEAD1 degradation in TEAD1-mNeonGreen fusion NCI-H1299 cells; format: cell-based; design: endogenous in cells; host or cells: NCI-H1299 (TEAD1-mNeonGreen knock-in); conditions: 100 nM, TEAD1-mNeonGreen fusion NCI-H1299 cells
Description: as §1

TEAD4 = target: T3, TEAD4 (Homo sapiens, UniProt Q15561); assay: HiBiT degradation assay, HEK293T HiBiT-TEAD4; format: cell-based; conditions: 6 h
T3 construct: endogenous in cells; host or cells: HEK293T HiBiT knock-in
Description: HiBiT cells were inoculated into 96‐well flat‐bottomed tissue culture plates at a density of 50 000 cells per well, followed by adding degraders into the wells using the I‐DOT dispenser. After 6 h of incubation, the cells were lysed and assayed for degradation using the Nano‐Glo HiBiT Lysis Assay System (Promega, #N3030). Luminescence signals were read using an Envision plate reader (Revvity) and the data were analyzed using GraphPad Prism 9.5 software.
The ribonucleoprotein (RNP) complex was prepared by mixing 2 µg of NLS‐Cas9‐EGFP nuclease (Novoprotein, #E379‐01A), 50 pmol of sgRNA, 10 µL of electrotransfer solution, and 50 pmol of designed donor DNA, then incubated for 10 min at room temperature. One million HEK293T cells were resuspended in 10 µL of electrotransfection solution and mixed with 10 µL of the RNP complex. Electroporation was performed using a Celetrix SP100 electroporator at 480 V. After electroporation, the cells were transferred to antibiotic‐free DMEM complete medium for overnight culture. The following day, EGFP‐positive cells were sorted using a Sony MA 900 cell sorter, plated in a 96‐well cell culture plate (Servicebio, #CCP‐96H), and cultured for 4 weeks. After this period, positive clones were screened using the Nano‐Glo HiBiT Lytic Detection system (Promega, #N3030).

T3 sequence (Q15561 whole entry): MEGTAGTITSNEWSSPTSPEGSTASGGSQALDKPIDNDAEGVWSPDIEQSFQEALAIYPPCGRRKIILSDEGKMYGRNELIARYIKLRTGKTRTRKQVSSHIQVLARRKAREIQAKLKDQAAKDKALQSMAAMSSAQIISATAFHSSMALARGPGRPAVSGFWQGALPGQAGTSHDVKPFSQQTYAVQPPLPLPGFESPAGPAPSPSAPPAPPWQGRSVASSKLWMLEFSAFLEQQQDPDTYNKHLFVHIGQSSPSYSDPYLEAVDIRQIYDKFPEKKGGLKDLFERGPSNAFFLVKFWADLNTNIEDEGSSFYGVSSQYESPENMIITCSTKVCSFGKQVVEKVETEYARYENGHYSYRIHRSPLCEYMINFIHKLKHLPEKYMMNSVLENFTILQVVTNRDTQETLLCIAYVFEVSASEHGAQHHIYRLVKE
T2 sequence (P28347 whole entry, the tested form may be a part): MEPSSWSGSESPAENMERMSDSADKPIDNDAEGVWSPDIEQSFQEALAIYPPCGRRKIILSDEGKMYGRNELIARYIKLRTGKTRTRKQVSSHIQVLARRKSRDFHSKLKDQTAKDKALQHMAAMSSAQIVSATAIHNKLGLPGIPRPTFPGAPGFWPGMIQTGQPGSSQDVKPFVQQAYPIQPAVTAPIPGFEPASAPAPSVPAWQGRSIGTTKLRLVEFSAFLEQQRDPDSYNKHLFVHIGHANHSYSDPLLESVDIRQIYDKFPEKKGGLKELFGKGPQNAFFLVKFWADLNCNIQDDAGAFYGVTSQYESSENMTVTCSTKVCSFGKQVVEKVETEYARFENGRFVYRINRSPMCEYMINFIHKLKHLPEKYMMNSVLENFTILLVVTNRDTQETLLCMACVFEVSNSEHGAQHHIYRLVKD
T2 sequence (Q96SW2 whole entry, the tested form may be a part): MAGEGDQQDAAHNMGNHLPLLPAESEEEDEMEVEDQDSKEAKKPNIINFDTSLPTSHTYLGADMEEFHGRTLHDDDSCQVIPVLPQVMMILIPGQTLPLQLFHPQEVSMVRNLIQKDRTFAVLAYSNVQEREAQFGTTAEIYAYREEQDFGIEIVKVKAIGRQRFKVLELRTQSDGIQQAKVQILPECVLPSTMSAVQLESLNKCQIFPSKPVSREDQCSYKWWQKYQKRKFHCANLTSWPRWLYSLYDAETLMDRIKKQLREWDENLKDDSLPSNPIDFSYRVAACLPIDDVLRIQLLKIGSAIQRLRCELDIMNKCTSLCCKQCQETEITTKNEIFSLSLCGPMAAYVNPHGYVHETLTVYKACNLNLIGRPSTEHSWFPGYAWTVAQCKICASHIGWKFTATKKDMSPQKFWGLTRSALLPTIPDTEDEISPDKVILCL
T2 sequence (Q16531 2-1140 partner limits assumed): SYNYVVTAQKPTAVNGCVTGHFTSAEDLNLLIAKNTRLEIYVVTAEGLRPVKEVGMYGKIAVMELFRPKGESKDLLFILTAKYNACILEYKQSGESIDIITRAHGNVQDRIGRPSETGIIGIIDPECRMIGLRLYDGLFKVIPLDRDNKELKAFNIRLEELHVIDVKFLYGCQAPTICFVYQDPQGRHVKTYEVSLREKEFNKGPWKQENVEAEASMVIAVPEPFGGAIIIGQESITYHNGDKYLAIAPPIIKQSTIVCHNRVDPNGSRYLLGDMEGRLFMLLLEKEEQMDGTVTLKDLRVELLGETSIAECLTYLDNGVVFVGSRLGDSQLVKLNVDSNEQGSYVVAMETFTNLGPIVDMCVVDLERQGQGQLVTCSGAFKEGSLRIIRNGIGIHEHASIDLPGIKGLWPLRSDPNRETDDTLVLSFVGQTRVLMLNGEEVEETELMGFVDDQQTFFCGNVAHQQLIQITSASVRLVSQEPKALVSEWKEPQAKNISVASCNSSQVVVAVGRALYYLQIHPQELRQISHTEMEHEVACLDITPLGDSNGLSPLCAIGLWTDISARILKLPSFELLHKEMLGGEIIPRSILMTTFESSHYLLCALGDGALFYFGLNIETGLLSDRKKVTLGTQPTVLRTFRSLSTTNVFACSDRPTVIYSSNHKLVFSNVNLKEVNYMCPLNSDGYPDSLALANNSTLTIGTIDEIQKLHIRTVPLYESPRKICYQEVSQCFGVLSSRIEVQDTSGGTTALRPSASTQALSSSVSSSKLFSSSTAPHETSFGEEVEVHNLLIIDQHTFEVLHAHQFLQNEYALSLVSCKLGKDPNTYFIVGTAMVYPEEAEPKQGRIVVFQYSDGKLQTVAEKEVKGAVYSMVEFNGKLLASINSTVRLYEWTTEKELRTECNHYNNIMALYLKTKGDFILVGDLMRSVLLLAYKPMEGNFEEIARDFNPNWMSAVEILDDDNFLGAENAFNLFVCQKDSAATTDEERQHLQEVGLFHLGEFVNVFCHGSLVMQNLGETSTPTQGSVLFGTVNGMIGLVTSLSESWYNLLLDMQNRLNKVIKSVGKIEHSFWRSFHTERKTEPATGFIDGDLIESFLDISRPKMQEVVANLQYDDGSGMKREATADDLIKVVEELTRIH
Sequence of TEAD1 (Homo sapiens, UniProt P28347) (P28347 whole entry, the tested form may be a part): as the sequence (P28347 whole entry, the tested form may be a part) above
Sequence of TEAD1 (Homo sapiens, UniProt P28347) (Q96SW2 whole entry, further chain, the tested form may be a part): as the sequence (Q96SW2 whole entry, the tested form may be a part) above
Sequence of TEAD1 (Homo sapiens, UniProt P28347) (Q16531 2-1140 partner limits assumed): as the sequence (Q16531 2-1140 partner limits assumed) above
T1 sequence (Q96SW2 whole entry): as the sequence (Q96SW2 whole entry, the tested form may be a part) above
Sequence of CRBN-DDB1 (Q96SW2 whole entry): as the sequence (Q96SW2 whole entry, the tested form may be a part) above

Structure (SMILES): CNC(=O)c1cc2c(c(F)c1-c1c(Cl)c(F)cc3c1C[C@@](CN[C@H]1CC[C@H](C(=O)N4CCC(CC5CCN(C(=O)COc6ccc(N7CCC(=O)NC7=O)c(C)c6)CC5)CC4)CC1)(c1ccccc1)O3)[C@@H](O)[C@@H](C)C2 [KG-FP-003]
- Degradation of TEAD1 and TEAD3 by immunoblot (TEAD1/3, TAZ): complete degradation
- TAZ protein expression by immunoblot (TEAD1/3, TAZ): increased TAZ protein expression
- IC50 (ES2 cells): 202 ± 14 nM
- IC50 (MSTO-211H cells; 72 h, 3-day antiproliferation, Figure 3C, read-out: IC50 (nM ± SD), MSTO-211H): 47 ± 5 nM
- IC50 (MSTO-211H cells; wild-type, Figure 3D, read-out: MSTO-211H: WT IC50): 47 ± 5 nM
- IC50 (KLE cells): 59 ± 34 nM
- IC50 (CRBN): 962 ± 86 nM
- Repression of TEAD target genes after washout (qPCR) [1]: sustained and pronounced repression
- Target degradation by immunoblot (TEAD1 [2]; 10 nM, 6 h, TEAD1-mNeonGreen NCI-H1299 cells): significant target degradation
- Time to near-complete depletion of TEAD1 (TEAD1 [2]; 100 nM, TEAD1-mNeonGreen fusion NCI-H1299 cells): ≤ 2 h
- TEAD1 protein degradation in tumor (MSTO-211H xenograft): pronounced degradation of TEAD1 protein
- Tumor growth inhibition versus vehicle (MSTO-211H xenograft): significant tumor growth inhibition
- IC50 (CRBN-DDB1): 591 ± 21 nM
- Duration of sustained TEAD1 degradation (TEAD1 [3]): up to 12 days
- DC50 (TEAD4): 7 ± 5 nM
- TEAD4 Dmax (TEAD4): ≈ 90%
- Dmax (TEAD4; HEK-293T): 88 ± 6%
